Assay results reported in US9499484B2, “Indole, indoline derivatives, compositions comprising them and uses thereof” (priority 2012, dated 2016).
Structures can show the parent of a compound that is named as a salt. Where two headings read alike, the source gives them in different places.

Assays:
[1] = target: T1, AChE (UniProt P23795); type: biochemical, human or bovine erythrocytes
T1 sequence (P23795 1-613): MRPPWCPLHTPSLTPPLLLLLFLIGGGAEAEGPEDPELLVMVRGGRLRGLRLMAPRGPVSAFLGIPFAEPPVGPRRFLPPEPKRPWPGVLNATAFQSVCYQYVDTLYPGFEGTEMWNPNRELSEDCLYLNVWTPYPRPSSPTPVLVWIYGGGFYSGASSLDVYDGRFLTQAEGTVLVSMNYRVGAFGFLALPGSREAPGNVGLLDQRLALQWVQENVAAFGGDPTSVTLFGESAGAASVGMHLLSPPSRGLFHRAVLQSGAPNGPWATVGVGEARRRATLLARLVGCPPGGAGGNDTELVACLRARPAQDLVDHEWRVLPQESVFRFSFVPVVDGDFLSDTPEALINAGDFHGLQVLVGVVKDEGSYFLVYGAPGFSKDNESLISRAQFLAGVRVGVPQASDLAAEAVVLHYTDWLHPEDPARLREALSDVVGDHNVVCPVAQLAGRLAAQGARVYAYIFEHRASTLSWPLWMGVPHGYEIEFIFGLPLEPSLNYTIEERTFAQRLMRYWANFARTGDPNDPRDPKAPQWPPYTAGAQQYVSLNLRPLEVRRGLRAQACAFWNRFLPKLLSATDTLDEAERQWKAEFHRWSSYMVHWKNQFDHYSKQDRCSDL
Description: (§1) B. Measurement of Acetylcholinesterase (AChE) and Butylcholinesterase (BuChE) Inhibition In Vitro
(§2) The enzyme was incubated at 37° C. with 6-10 concentrations of the compounds tested and samples were collected at 15, 30, 60 and 120 min Aliquots were transferred to an Elisa multiscan microplate reader (Labsystems) at 15-60 sec time intervals for the determination of residual AChE activity, with Ascent PC software. […] The % inhibition of AChE by each concentration was calculated by comparison with the activity of the enzyme in the absence of drug. […] BuChE-inhibitory activity was determined as described above using BuChE (Sigma Israel) with butylthiocholine iodide (BuTh) 0.075M as a substrate.

[2] = system: TNF-α, RAW 264.7 cells; assay: TNF-α reduction in LPS-stimulated RAW 264.7 macrophages; type: cell-based, mouse
[3] = system: TNF-α, BV2 mouse microglial cells; assay: TNF-α reduction in LPS-stimulated BV2 microglia; type: cell-based; conditions: for Reduction in TNF-α levels, BV2 Microglia range: concentration range, None = no reduction up till 100 nM
Description: The BV2 mouse microglial cells were created by infecting primary mouse microglia with v-raf/v-myc oncogen-carrying retrovirus and donated by Dr. Sigal Fleisher—Berkovich (Ben-Gurion University of the Negev). The cells were cultured in RPMI 1640 containing 0.4 mM L-Glutamine, 10% FCS, 100 units/ml penicillin, 100 μg/ml streptomycin and maintained in a humidified incubator at 37° C. with 5% CO2. For measurement of the effect of compounds on the release of NO the cells were seeded in a density of 80,000 cells/ml and confluence of about 60%, and incubated with test compounds (in the absence of FCS) for […] All the medium was removed and fresh medium containing FCS and LPS (10 μg/ml) added and the cells maintained at 37° C. for 24 h. The release of NO into the medium was determined by measurement of nitrite levels using Griess reagent reaction. For measurement of protein levels of cytokines cells were seeded in a density of 80,000 and incubated with test compounds (in the absence of FCS) and then with LPS as described above. The medium was centrifuged and supernatants collected after 6 h for TNF-α (Biolegend) and after 20 h for IL-6 (Biolegend).

[4] = Radical scavenging, glucose oxidase/luminol luminescence; type: biochemical; conditions: concentration reducing luminescence/radical by 50%; mean ± SD, three independent experiments
Description: A. Measurement of Radical Scavenging
A mixture comprising glucose oxidase (GO), luminol, sodium selenite [IV] ([…]) and cobalt [II] (Co^+2) all in Hank's Balance Salt Solution (HBSS) was used (Ginsburg et al, 2004). The production of H2O2 produces a burst of luminescence within 30-60 sec, which lasts for 7-10 min. The luminescence involves oxidation of SEL+5 to it SEL+6 and also the generation of oxidants, which are catalyzed by Co^+2. This method mimics infection and inflammation conditions in which there is an accumulation of several oxidant species. This method provides a source of several radicals. Reduction in luminescence by the compounds is due to their ability to sequester radicals and was measured after addition of several concentrations of each compound. The concentration of each compound that reduced the luminescence by 50% was calculated.

[5] = Radical scavenging, Sin1; type: biochemical; conditions: mean ± SD, three independent experiments
[6] = target: T2, BuChE (UniProt P81908); type: biochemical, human or equine serum
T2 construct: 120 min incubation; BuChE IC50
Description: as §1, §2

[7] = system: ChE (AChE, BuChE) in plasma, muscle, spleen, brain; conditions: after ip and or oral administration in mice
Description: E. Acetylcholinesterase (AChE) and Butylcholinesterase (BuChE) Inhibition Ex Vivo
Compounds of the invention or saline were administrated by intraperitoneal (ip) injection or gavage to groups of 6-7 male ICR or Balb C mice (5-6 weeks of age). The mice were sacrificed 15, 30, 60 or 120 min after drug administration and the brain (minus cerebellum), spleen, and muscle were rapidly removed, weighed and put on ice. Blood was also collected in heparinised tubes, centrifuged at 14000 rpm at room temperature for 4 mM to provide plasma. Phosphate buffer pH 7 was added to each tissue to produce concentrations of 1 mg/mL for brain and spleen and 8 mg/mL for muscle. The tissues were homogenised in cold phosphate buffer pH 7 containing 0.1% Triton and centrifuged at 14000 rpm. Aliquots of plasma and the supernatant of all tissues were incubated with AcTh or BuTh and DTNB in phosphate buffer pH 7 and the rate of development of the yellow colour was measured as described above. Enzyme activity was measured for each time and drug concentration and percent inhibition of the AChE or BuChE activity was calculated by comparison with that of control mice injected with saline. Results are represented as p moles acetylthiocholine or butythiocholine hydrolysed/min/gm tissue.

[8] = system: NO, RAW 264.7 cells; assay: NO reduction in LPS-stimulated RAW 264.7 macrophages; type: cell-based, mouse
[9] = Table 2, 120 min incubation, read-out: IC50 AChE 120′
[10] = Mus musculus, RAW264.7, 6 h, read-out: Reduction in TNF-α levels, RAW Macrophages % peak reduction
[11] = Table 3, 120 min incubation, read-out: IC50 AChE 120 min
[12] = read-out: IC50 BuChE 120 min; Table 3; 120 min incubation
[13] = concentration range; None = no reduction up till 100 nM
[14] = Mus musculus, RAW264.7, 24 h, read-out: Reduction in NO levels, RAW Macrophages % peak reduction

CN(C)C(=O)Oc1cccc2c1CCN2C [AN-619, Dimethyl-carbamic acid 1-methyl-2,3-dihydro-1H-indol-4-yl ester]
IC50 [1, 9]: 3500 nM

CN(C)C(=O)Oc1cccc2ccn(C)c12 [AN-621, Dimethyl-carbamic acid 1-methyl-1H-indol-7-yl ester]
IC50 [1]: 330 nM
IC50 [1, 9]: 300 nM

CCN(CC)C(=O)Oc1ccc2c(ccn2C)c1 [AN-622, Diethyl-carbamic acid 1-methyl-1H indol-5-yl ester]
IC50 ([1]; read-out: IC50 AChE 120′): > 500000 nM

CCN(CC)C(=O)Oc1ccc2c(c1)CCN2C [AN-625, Diethyl-carbamic acid 1-methyl-2,3-dihydro-1H indol-5-yl ester]
IC50 ([1]; read-out: IC50 AChE 120′): 50000 nM

CCN(C)C(=O)Oc1cccc2c1c(CCC(=O)OC)cn2C [AN-629, Methyl 3-(4-((ethyl(methyl)carbamoyl)oxy)-1-methyl-1H-indol-3-yl) propanoate]
IC50 [1, 9]: 180000 nM

CCN(C)C(=O)Oc1ccc2c(c1)C(CCC(=O)OC)CN2 (stereo not shown) [AN-669, 3-(2-(Methoxycarbonyl)ethyl) indolin-5-yl ethylmethylcarbamate]
IC50 [1, 9]: 660000 nM

CCN(C)C(=O)Oc1ccc2c(c1)NCC2CCC(=O)OC (stereo not shown) [AN-680, 3-(2-(Methoxycarbonyl)ethyl)-1-indoline-6-yl ethylmethylcarbamate hydrochloride]
Emax [2, 10]: 34.5 ± 1.6%
Reduction in TNF-α levels, BV2 Microglia range [3]: None
IC50 [1, 11]: 55200 nM
IC50 [4]: 1450 ± 50 nM
IC50 [5]: 2360 ± 50 nM
IC50 [6, 12]: 3900 nM

COC(=O)CCC1CNc2cc(O)ccc21 (stereo not shown) [AN-682, Methyl 3-(6-hydroxyindolin-3-yl)propanoate hydrochloride]
Emax ([2]; Mus musculus, RAW264.7, 6 h; read-out: Reduction in TNF-α levels, RAW Macrophages % peak reduction): 55 ± 1.3%
Reduction in TNF-α levels, RAW Macrophages range [2, 13]: 10^−1-100 nM
Reduction in TNF-α levels, BV2 Microglia % peak reduction [3]: 17.6 ± 1.3%
Reduction in TNF-α levels, BV2 Microglia range [3]: 10^−2-100 nM
IC50 [4]: 1340 ± 10 nM
IC50 [5]: 2330 ± 80 nM

COC(=O)CCC1CN(C)c2cccc(OC(=O)N(C)c3ccc(OC)cc3)c21 (stereo not shown) [AN-820, 3-(2-(Methoxycarbonyl)ethyl)-1-methylindolin-4-yl 4-methoxyphenylmethyl carbamate hydrochloride]
IC50 [1, 11]: 246000 nM
IC50 [4]: 15300 ± 10 nM
IC50 [6, 12]: > 600000 nM

CCN(C)C(=O)Oc1cccc2c1C(CCC(=O)OC)CN2 (stereo not shown) [AN-827, 3-(2-(Methoxycarbonyl)ethyl)indolin-4-yl ethylmethylcarbamate hydrochloride]
Emax [2, 10]: 30 ± 3%
Reduction in TNF-α levels, RAW Macrophages range [2, 13]: 10^−1-100 nM
Reduction in TNF-α levels, BV2 Microglia % peak reduction [3]: 38.5 ± 3.2%
Reduction in TNF-α levels, BV2 Microglia range [3]: 10^−1-100 nM
IC50 [4]: 1460 ± 50 nM
IC50 [5]: 4550 ± 480 nM
IC50 [6, 12]: 300 nM
ChE inhibition in plasma, muscle, and spleen [7]: inhibited ChE

O=C(O)CCC1CNc2cc(O)ccc21 (stereo not shown) [AN-848, 3-(6-Hydroxyindolin-3-yl) propanoic acid hydrochloride]
IC50 [4]: 2340 ± 20 nM
IC50 [5]: 3070 ± 660 nM

CCN(C)C(=O)Oc1ccc2c(CCC(=O)OCOC(=O)C(C)(C)C)c[nH]c2c1 [AN-860, (3-(6-(Ethyl(methyl)carbamoyloxy)-1H-indol-3-yl)propanotloxy)methyl pivalate]
ChE inhibition in plasma, muscle, and spleen [7]: inhibited ChE

CCOC(=O)CCC1CNc2cccc(OC(=O)N(C)CC)c21.O=C(O)CC(O)(CC(=O)O)C(=O)O (stereo not shown) [AN-871, Ethyl 3-(4-(ethyl(methyl)carbamoyloxy)indolinium citrate]
IC50 [1, 11]: 40200 nM
IC50 [6, 12]: 560 nM

CCN(C)C(=O)Oc1ccc2c(c1)NCC2CCC(=O)OC.O=C(O)CC(O)(CC(=O)O)C(=O)O (stereo not shown) [AN-878, 6-(Ethyl(methyl)carbamoyloxy)-3-(3-methoxy-3-oxopropyl)indolinium citrate]
ChE inhibition in plasma, muscle, and spleen [7]: inhibited ChE

CCN(C)C(=O)Oc1cccc2[nH]cc(CCCN)c12 [AN-910, 3-(4-((Ethyl(methyl)carbamoyl)oxy)-1H-indol-3-yl)propan-1-aminium chloride]
Emax [8, 14]: 29.3 ± 1.2%
IC50 [6, 12]: 230 nM

CCN(C)C(=O)Oc1ccc2c(CCCN)c[nH]c2c1.Cl [AN-911, 3-(6-((Ethyl(methyl)carbamoyl)oxy)-1H-indol-3-yl)propan-1-aminium chloride]
IC50 ([1]; read-out: IC50 AChE 120 min): 24000 nM
Emax [8, 14]: 66.6 ± 1.9%
Reduction in NO levels by at >20%, RAW Macrophages range [8, 13]: 10^−2-100 nM
IC50 [6, 12]: 100 nM

CCN(C)C(=O)Oc1cccc2c1CCN2CCC(=O)OC.Cl [AN-1243, Methyl 3-(4-((Ethyl(methyl)carbamoyl)oxy)indolin-1-yl)propanoate Hydrochloride]
Emax [2, 10]: 20.3 ± 5.4%
Reduction in TNF-α levels, BV2 Microglia % peak reduction [3]: 18.6 ± 1.0%
Reduction in TNF-α levels, BV2 Microglia range [3]: 100 nM
IC50 [4]: 300 ± 10 nM
IC50 [5]: 8490 ± 3 nM
IC50 [6, 12]: 700 nM

CCN(C)C(=O)Oc1cccc2[nH]cc(CCN(C)C)c12 [AN-1252, 3-(2-(Dimethylamino)ethyl)-1H-indol-4-yl ethyl(methyl)carbamate hydrochloride]
Emax ([8]; Mus musculus, RAW264.7, 24 h; read-out: Reduction in NO levels, RAW Macrophages % peak reduction): 36.4 ± 1.8%
IC50 ([6]; read-out: IC50 BuChE 120 min): 110 nM

CCCCN(C)C(=O)Oc1ccc2c(CCC(=O)OC)c[nH]c2c1 [compound 676, 3-(2-(Methoxycarbonyl)ethyl)-1H-indol-6-yl butylmethylcarbamate]
IC50 [1, 9]: 33000 nM

COC(=O)CCc1c[nH]c2cc(OC(=O)N(C)c3ccc(OC)cc3)ccc12 [compound 683, Methyl 3-(6-((4-methoxyphenyl)(methyl)carbamoyloxy)-1H-indol-3-yl)propanoate]
IC50 [1, 9]: > 800000 nM

CCN(C)C(=O)Oc1ccc2c(c1)N(CCC(=O)OC)CC2 [compound 1247, Methyl 3-(6-((Ethyl(methyl)carbamoyl)oxy)indolin-1-yl)propanoate hydrochloride]
IC50 [4]: 220 ± 40 nM
IC50 [5]: 2180 ± 170 nM
IC50 [6, 12]: 6800 nM

Ethyl 3-(5- ((ethyl(methyl)carbamoyl) oxy)-1H- benzo[d]imidazol-1- yl)propanoate hydrochloride Ethyl 3-(6- ((ethyl(methyl)carbamoyl) oxy)-1H- benzo[d]imidazol-1- yl)propanoate hydrochloride [AN-1257]
Reduction in NO levels, RAW Macrophages % peak reduction [8]: 34.5 ± 1.2%
Reduction in NO levels by at >20%, RAW Macrophages range [8, 13]: 10^−2-1000 nM
IC50 ([6]; Table 3; 120 min incubation; read-out: IC50 BuChE 120 min): 110 nM
